Positions count from the first letter of the chain named. In names and notes the source's numbering stands.
Experiments:
[1] = system: HH cells (IL-2 CD122/CD132 (β/γ) receptor complex); assay: pSTAT5 ELISA in HH cells; type: cell-based
Procedure: (§1) The ability of the IL-2 variants to activate HH cells and iTregs was measured by monitoring relative changes in phosphorylated STAT5 (pSTAT5) in response to treatment of the cells with the IL-2 variants. pSTAT5 is known to be a downstream consequence of IL-2 signaling. HH T cells (ATCC CRL-2105) are a line of T cells that lack the alpha chain of the IL-2 receptor complex, but that contain the beta and gamma chains of the IL-2 receptor complex. iTreg cells were prepared from Fresh Leuko Paks obtained from […] Technologies (CAT #70500.1, Donor #D001003551).
(§2) For IL-2 activation, the HH cells and iTreg cells were plated at 2*10e6 cells/well in 50 ul serum-free RPMI 1640 media (Gibco), and allowed to rest at 37° C. After resting, cells were treated the IL-2 molecules listed above, and cells were then pelleted by centrifugation.
(§3) Following treatment with the IL-2 molecules, cell induction status was evaluated by the InstantOne ELISA pSTAT5 detection kit (Invitrogen).

[2] = system: iTreg cells (IL-2 CD25/CD122/CD132 (α/β/γ) receptor complex); assay: pSTAT5 ELISA in iTreg cells; type: cell-based; conditions: pSTAT5 level 50% of maximum, InstantOne ELISA; read-out: EC50 iTreg cell
Procedure: as §1, §2, §3

CD8 T cells [3] = assay: pSTAT5 flow cytometry in hPBMCs: CD8 T cells; type: cell-based, human
Procedure: (§4) In this experiment, the ability of the IL-2 variants to activate CD8 T cells, NK cells, and Treg cells was measured by monitoring relative changes in pSTAT5 in response to treatment of the cells with the IL-2 variants. The IL-2 variants tested in this experiment were each fused to a human IgG Fc domain as described in Example 15. […]; Blood from healthy volunteers was taken and hPBMCs were isolated using a ficoll-paque (GE Healthcare) gradient, washed with PBS to remove platelets, and cleared of red blood cells using ACK lysis buffer (Gibco). Cells were then plated at 1*10e6 cells/well in 90 uL serum-free RPMI 1640 media (Gibco) and allowed to rest for 2-4 hours at 37° C. After resting, cells were treated the IL-2 molecules listed above (10 uL), at the indicated concentrations for 20 minutes at 37° C., and 25 uL 20% PFA was immediately added with gentle pipetting. Cells were then pelleted by centrifugation and aspirated (400 RCF, 7 minutes).
(§5) Phosflow Perm Buffer III (BD Biosciences) was added (200 uL), and the cells were mixed gently by pipetting up and down once to prevent clumping. Cells were then washed twice with 200 uL FACS buffer followed by pelleting by centrifugation (400 RCF, 7 minutes). Cells were in resuspended in 200 uL FACS buffer and incubated with the antibodies in Table D and Table E per standard procedure then suspended in 200 uL FACS buffer for FACS analysis. Data was analyzed using FlowJo v10 software.

NK cells [4] = assay: pSTAT5 flow cytometry in hPBMCs: NK cells; type: cell-based, human
Procedure: as §4, §5

Treg cells [5] = assay: pSTAT5 flow cytometry in hPBMCs: Treg cells; type: cell-based, human; conditions: pSTAT5 MFI in hPBMCs, 20 minutes at 37° C.; read-out: EC50 Treg cell
Procedure: as §4, §5

CD8 T cells [6] = assay: In vivo expansion of CD8 T cells (spleen immunophenotyping); parameters: species or system mice; conditions: 0.5, 1, or 2 mg/kg daily for 4 days SC; spleens day 3
Procedure: (§6) Mice were randomized into groups to receive one of the molecules listed above or PBS control. The treatment groups were as follows: PBS; Fc-IL2; Fc-IL2v; […]; Immunophenotyping was conducted on day 3 after the first treatment (day 0) by collecting spleens from each group.

NK cells [7] = assay: In vivo expansion of NK cells (spleen immunophenotyping); parameters: species or system mice; conditions: 0.5, 1, or 2 mg/kg daily for 4 days SC; spleens day 3
Procedure: as §6

Treg cells [8] = assay: In vivo expansion of Treg cells (spleen immunophenotyping); parameters: species or system mice; conditions: 0.5, 1, or 2 mg/kg daily for 4 days SC; spleens day 3
Procedure: as §6

B16F10 cells = assay: Tolerability and tumor growth inhibition in B16F10-bearing mice (Example 21); type: in vivo, mouse (C57/BL6)
From the text: On day 0 of the experiment, female C57/BL6 mice were subcutaneously implanted in the upper thigh with approximately 500,000 B16F10 cells, which had been freshly thawed from a single, low-passage vial (of 1*10^7 cells) and cultured for the minimum time required to establish sufficient cells for implantation.
On day 5 of the experiment, mice were randomized into groups to receive one of the molecules listed above or control. […] Tumor volumes, body weight, and animal survival were tracked throughout the course of the experiment. Animals were sacrificed once tumors reached approximately 2000 mm^3 or 2 weeks post treatment.

[9] = target: T1, mouse intermediate-affinity IL-2R (IL-2Rβ + IL-2Rγ) on murine splenocytes (CD8+ T cells and NK cells) (mouse) (UniProt P16297)
T1 sequence 1: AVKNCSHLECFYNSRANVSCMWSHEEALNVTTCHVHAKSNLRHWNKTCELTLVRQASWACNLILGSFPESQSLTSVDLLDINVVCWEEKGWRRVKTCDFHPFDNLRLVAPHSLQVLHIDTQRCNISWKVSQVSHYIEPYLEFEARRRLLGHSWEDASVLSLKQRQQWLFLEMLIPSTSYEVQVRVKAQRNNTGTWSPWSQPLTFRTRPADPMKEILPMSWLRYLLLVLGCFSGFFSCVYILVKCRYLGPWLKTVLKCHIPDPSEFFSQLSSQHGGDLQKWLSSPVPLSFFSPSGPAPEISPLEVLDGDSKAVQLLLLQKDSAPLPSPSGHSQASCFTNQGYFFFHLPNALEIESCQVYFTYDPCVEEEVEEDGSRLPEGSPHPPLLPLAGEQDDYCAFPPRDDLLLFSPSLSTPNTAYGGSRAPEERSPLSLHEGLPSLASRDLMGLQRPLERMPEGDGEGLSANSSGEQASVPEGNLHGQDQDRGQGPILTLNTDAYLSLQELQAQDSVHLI
T1 sequence 2: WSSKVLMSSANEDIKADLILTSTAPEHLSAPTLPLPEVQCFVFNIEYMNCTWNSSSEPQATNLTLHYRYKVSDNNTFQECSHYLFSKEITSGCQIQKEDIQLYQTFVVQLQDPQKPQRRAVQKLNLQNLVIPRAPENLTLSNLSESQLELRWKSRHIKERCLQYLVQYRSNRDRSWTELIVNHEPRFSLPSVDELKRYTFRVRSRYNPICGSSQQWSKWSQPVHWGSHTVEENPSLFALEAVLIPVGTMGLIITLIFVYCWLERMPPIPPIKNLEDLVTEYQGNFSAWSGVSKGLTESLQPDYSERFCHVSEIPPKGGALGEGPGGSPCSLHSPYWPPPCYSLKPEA

[10] = target: T2, human intermediate-affinity IL-2 receptor complex, IL-2 CD122/CD132 (β/γ), on cells (human, UniProt P14784 27-551; P31785 23-369); assay: cell-based or functional assay
T2 sequence (looked up) 1: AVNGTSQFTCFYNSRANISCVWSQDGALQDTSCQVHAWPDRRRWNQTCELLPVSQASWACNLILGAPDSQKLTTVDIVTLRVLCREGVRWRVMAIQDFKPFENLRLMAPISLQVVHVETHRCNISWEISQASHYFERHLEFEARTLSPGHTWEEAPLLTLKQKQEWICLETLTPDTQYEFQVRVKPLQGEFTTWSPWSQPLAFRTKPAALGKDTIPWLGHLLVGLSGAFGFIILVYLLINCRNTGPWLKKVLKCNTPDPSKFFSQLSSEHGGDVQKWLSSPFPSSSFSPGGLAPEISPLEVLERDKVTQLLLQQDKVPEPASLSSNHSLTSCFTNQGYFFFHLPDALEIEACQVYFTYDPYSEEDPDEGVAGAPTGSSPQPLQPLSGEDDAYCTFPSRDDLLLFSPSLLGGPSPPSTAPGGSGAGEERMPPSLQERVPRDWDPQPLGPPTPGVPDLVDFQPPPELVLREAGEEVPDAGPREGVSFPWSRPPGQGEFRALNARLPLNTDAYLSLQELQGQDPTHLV
T2 sequence (looked up) 2: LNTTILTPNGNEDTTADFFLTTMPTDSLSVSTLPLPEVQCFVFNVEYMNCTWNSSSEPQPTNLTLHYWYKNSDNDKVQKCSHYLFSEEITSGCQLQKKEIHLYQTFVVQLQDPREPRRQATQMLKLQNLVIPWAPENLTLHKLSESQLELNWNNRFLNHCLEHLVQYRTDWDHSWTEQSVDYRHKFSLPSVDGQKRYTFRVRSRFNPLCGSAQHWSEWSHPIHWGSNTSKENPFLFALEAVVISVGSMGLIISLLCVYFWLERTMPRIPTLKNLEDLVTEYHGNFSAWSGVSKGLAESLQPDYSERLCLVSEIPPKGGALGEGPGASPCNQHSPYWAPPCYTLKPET

[11] = target: T3, human high-affinity IL-2 receptor complex, IL-2 CD25/CD122/CD132 (α/β/γ), on cells (human, UniProt P01589 22-272; P14784 27-551; P31785 23-369); assay: cell-based or functional assay
T3 sequence (looked up) 1: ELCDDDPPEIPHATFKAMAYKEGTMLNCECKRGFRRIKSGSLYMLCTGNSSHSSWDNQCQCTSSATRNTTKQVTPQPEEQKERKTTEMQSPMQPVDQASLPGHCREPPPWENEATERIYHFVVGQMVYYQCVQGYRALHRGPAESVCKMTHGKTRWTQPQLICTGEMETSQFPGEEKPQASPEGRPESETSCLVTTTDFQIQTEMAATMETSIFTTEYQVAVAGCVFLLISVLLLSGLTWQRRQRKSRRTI
T3 sequence (looked up) 2: T2 sequence (looked up) 1
T3 sequence (looked up) 3: T2 sequence (looked up) 2

[12] = system: Treg cells (CD3+CD4+CD25+ Foxp3+); type: cell-based, mouse (C57BL/6); conditions: protein from supernatants of virus-infected HeLa cells, 15 minutes incubation

Fc-IL2-K43N:Y45T
Selectivity HH/iTreg ([1]; higher value = greater selectivity for HH cells): 3.86 × 10^−3 | EC50 ([1]; pSTAT5 level 50% of maximum, InstantOne ELISA, read-out: EC50 HH T cell): 166 nM | EC50 [2]: 0.64 nM | Selectivity CD8/Treg (CD8 T cells [3]; larger numbers = greater selectivity for CD8 T cells over Treg cells): 0.42 | EC50 (CD8 T cells [3]; pSTAT5 MFI in hPBMCs, 20 minutes at 37° C., read-out: EC50 CD8 T cell): 57.6 nM | Selectivity NK/Treg (NK cells [4]; larger numbers = greater selectivity for NK cells over Treg cells): 3.8 | EC50 (NK cells [4]; pSTAT5 MFI in hPBMCs, 20 minutes at 37° C., read-out: EC50 NK cell): 6.37 nM | EC50 (Treg cells [5]): 24.2 nM | expansion of CD8 T cells in vivo (CD8 T cells [6]): promoted the expansion | expansion of NK cells in vivo (NK cells [7]): promoted the expansion | proliferation of Treg cells in vivo (Treg cells [8]): modest increase in Treg proliferation | surviving mice (B16F10 cells; 1 mg/kg SC on days 5, 6, 7, 8, groups of 15, day 12 post first treatment): 7/15 | tolerability in mice compared with Fc-IL2 and Fc-IL2v (B16F10 cells; 1 mg/kg SC on days 5-8): better tolerated

human IL-2 glycovariant hIL-2gv1 (R38N, L40T, K43N, Y45T), secreted by virus-infected HeLa cells (from UniProt P60568 21-153) (ligand)
EC50 (read off the curve), pSTAT5 MFI, murine splenocyte NK cells [9]: 20 ng/mL

human IL-2 glycovariant 2 hIL-2gv2 (K43N, Y45T, L72N, Q74T), secreted by virus-infected HeLa cells (from UniProt P60568 21-153) (ligand)
EC50 (read off the curve), pSTAT5 MFI, murine splenocyte NK cells [9]: 20 ng/mL

B1: Fc-IL2-T41N:K43T-E62N:K64T (Fc fusion)
chain: GGGGSGGGGSAPTSSSTKKTQLQLEHLLLDLQMILNGINNYKNPKLTRMLNFTFYMPKKATELKHLQCLEENLTPLEEVLNLAQSKNFHLRPRDLISNINVIVLELKGSETTFMCEYADETATIVEFLNRWITFCQSIISTLT
EC50 (read off the curve), pSTAT5 MFI in NK cells of hPBMC [10]: ~6 nM | EC50 (read off the curve), pSTAT5 MFI in Treg cells of hPBMC [11]: ~20 nM

B2: Fc-IL2-T41N:K43T-L72N:Q74T (Fc fusion)
chain: B1 chain with N72E, T74K, L82N, Q84T
EC50 (read off the curve), pSTAT5 MFI in NK cells of hPBMC [10]: ~6 nM | EC50 (read off the curve), pSTAT5 MFI in Treg cells of hPBMC [11]: ~20 nM

B3: IL-2gv1 (protein)
chain: APTSSSTKKTQLQLEHLLLDLQMILNGINNYKNPKLTNMTTFNFTMPKKATELKHLQCLEEELKPLEEVLNLAQSKNFHLRPRDLISNINVIVLELKGSETTFMCEYADETATIVEFLNRWITFCQSIISTLT
activity on Treg cells (concentration potency at inducing pSTAT5) compared to wild-type IL-2 [12]: reduced activity on Treg cells

B4: IL-2gv2 (protein)
chain: B3 chain with N38R, T40L, L72N, Q74T
activity on Treg cells (concentration potency at inducing pSTAT5) compared to wild-type IL-2 [12]: reduced activity on Treg cells

— patent publication US20220033784A1 (priority 2020, published 2022)
